Data from US20250034216A1, “STEREOSELECTIVE COVALENT LIGANDS FOR ONCOGENIC AND IMMUNOLOGICAL PROTEINS” (The Scripps Research Institute, priority 2021, published 2025).

Target: T1, CLUH_C333 (Homo sapiens, UniProt O75153)
T1 construct: endogenous in cells; host or cells: 22Rv1
T1 sequence (O75153 1-1309): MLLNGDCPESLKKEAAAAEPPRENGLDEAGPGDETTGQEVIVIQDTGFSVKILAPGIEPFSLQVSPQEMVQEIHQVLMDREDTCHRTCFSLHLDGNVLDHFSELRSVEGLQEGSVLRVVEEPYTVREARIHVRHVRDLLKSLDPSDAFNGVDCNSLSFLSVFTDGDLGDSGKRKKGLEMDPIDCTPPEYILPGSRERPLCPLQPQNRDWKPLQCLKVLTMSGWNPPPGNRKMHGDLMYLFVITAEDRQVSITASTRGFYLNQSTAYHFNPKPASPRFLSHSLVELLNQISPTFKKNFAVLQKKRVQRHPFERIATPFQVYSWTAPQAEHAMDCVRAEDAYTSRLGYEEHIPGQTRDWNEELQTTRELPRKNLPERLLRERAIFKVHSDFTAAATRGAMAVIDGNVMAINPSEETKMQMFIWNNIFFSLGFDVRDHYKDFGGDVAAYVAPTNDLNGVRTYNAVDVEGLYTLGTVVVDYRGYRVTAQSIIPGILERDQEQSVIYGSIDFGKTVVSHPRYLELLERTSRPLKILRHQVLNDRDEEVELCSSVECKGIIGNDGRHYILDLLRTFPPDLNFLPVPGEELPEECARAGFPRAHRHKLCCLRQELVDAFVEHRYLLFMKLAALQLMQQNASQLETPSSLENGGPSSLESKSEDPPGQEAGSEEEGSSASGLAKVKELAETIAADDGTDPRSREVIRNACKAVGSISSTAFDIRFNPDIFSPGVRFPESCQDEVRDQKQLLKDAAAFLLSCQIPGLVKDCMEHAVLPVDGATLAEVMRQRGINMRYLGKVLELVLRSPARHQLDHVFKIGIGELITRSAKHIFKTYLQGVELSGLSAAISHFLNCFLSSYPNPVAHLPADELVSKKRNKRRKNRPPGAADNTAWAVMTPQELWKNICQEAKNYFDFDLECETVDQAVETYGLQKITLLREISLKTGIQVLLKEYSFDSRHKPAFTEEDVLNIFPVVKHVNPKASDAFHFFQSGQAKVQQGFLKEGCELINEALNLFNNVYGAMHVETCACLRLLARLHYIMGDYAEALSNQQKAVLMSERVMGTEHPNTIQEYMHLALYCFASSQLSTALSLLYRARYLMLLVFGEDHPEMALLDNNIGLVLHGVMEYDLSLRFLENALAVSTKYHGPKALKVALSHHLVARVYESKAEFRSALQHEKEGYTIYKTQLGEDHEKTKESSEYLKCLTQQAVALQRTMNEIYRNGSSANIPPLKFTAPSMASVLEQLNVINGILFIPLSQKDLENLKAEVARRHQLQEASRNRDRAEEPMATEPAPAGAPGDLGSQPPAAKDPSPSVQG
Assay: IA-DTB cysteine engagement
Format: binding
Details: 22Rv1 cells, 20 μM probe, 1 h, relative to DMSO
Summary of the method: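 Probe-exposed cells were lysed, IA-DTB-labeled, trypsinized and streptavidin-enriched. Multiplexed TMT quantitation gave engagement ratios versus DMSO, with non-tryptic peptides excluded and intensities normalized to median summed signal.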

Structure (SMILES)	% engagement CLUH_C333
C=CC(=O)N1C[C@@H](c2ccc(Br)cc2)[C@H]1C(=O)Nc1cccc2cccnc12 [MY-1A, (2S,3R)-1-acryloyl-3-(4-bromophenyl)-N-(quinolin-8-yl)azetidine-2-carboxamide]	81%
C=CC(=O)N1C[C@H](c2ccc(Br)cc2)[C@@H]1C(=O)Nc1cccc2cccnc12 [MY-1B, (2R,3S)-1-acryloyl-3-(4-bromophenyl)-N-(quinolin-8-yl)azetidine-2-carboxamide]	13%
C=CC(=O)N1C[C@H](c2ccc(Br)cc2)[C@H]1C(=O)Nc1cccc2cccnc12 [MY-3A, (2S,3S)-1-acryloyl-3-(4-bromophenyl)-N-(quinolin-8-yl)azetidine-2-carboxamide]	0.5%
C=CC(=O)N1C[C@H](c2ccc(Br)cc2)[C@H]1C(=O)Nc1cccc2cccnc12 [MY-3B, (2S,3S)-1-acryloyl-3-(4-bromophenyl)-N-(quinolin-8-yl)azetidine-2-carboxamide]	−4.5%
